The source of these data is PMC9481570, “A small molecule antagonist of SMN disrupts the interaction between SMN and RNAP II” (Nature Communications, 2022).

Common to all, as to experiment: Affinity-purification and mass spectrometry (AP-MS) chemical proteomics, all proteins;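 as to Difference: 200 µM free competitor with 20 µM biotin probe overnight in lysate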
What all share (type): binding

Experiment [1] deals with T1, proteins displaced from immobilized biotin-Cmpd 1 pulldowns (U2OS cell lysate) (Homo sapiens, UniProt Q08945).
T1 construct: endogenous in cells; host or cells: U2OS
The following applies: GN=SSRP1 (Q08945).

For experiment [2], the target named is T2, proteins displaced from immobilized biotin-Cmpd 1 pulldowns (U2OS cell lysate) (Homo sapiens, UniProt Q96AG4).
T2 construct: endogenous in cells; host or cells: U2OS
Conditions: GN=LRRC59 (Q96AG4).

Experiment [3] addresses T3, proteins displaced from immobilized biotin-Cmpd 1 pulldowns (U2OS cell lysate) (Homo sapiens, UniProt O75369).
T3 construct: endogenous in cells; host or cells: U2OS
Conditions: GN=FLNB (O75369).

In experiment [4] the target is T4, proteins displaced from immobilized biotin-Cmpd 1 pulldowns (U2OS cell lysate) (Homo sapiens, UniProt P49368).
T4 construct: endogenous in cells; host or cells: U2OS
The following applies: GN=CCT3 (P49368).

The target in experiment [5] is T5, proteins displaced from immobilized biotin-Cmpd 1 pulldowns (U2OS cell lysate) (Homo sapiens, UniProt P05109).
T5 construct: endogenous in cells; host or cells: U2OS
The following applies: GN=S100A8 (P05109).

Experiment [6] has as its target T6, proteins displaced from immobilized biotin-Cmpd 1 pulldowns (U2OS cell lysate) (Homo sapiens, UniProt P06748).
T6 construct: endogenous in cells; host or cells: U2OS
Conditions: GN=NPM1 (P06748).

The target of experiment [7] is T7, proteins displaced from immobilized biotin-Cmpd 1 pulldowns (U2OS cell lysate) (Homo sapiens, UniProt Q86UE4).
T7 construct: endogenous in cells; host or cells: U2OS
Conditions: GN=MTDH (Q86UE4).

Experiment [8] has as its target T8, proteins displaced from immobilized biotin-Cmpd 1 pulldowns (U2OS cell lysate) (Homo sapiens, UniProt Q96EY1).
T8 construct: endogenous in cells; host or cells: U2OS
The following applies: GN=DNAJA3 (Q96EY1).

The target in experiment [9] is T9, proteins displaced from immobilized biotin-Cmpd 1 pulldowns (U2OS cell lysate) (Homo sapiens, UniProt Q14980).
T9 construct: endogenous in cells; host or cells: U2OS
Conditions: GN=NUMA1 (Q14980).

Experiment [10] has as its target T10, proteins displaced from immobilized biotin-Cmpd 1 pulldowns (U2OS cell lysate) (Homo sapiens, UniProt Q8WXX7).
T10 construct: endogenous in cells; host or cells: U2OS
Conditions: GN=AUTS2 (Q8WXX7).

Molecules are shown by their SMILES. “And” between values parts separate entries of the source, which are not always exact repeats. Equal entries are not always repeated.

T4 sequence (P49368 whole entry): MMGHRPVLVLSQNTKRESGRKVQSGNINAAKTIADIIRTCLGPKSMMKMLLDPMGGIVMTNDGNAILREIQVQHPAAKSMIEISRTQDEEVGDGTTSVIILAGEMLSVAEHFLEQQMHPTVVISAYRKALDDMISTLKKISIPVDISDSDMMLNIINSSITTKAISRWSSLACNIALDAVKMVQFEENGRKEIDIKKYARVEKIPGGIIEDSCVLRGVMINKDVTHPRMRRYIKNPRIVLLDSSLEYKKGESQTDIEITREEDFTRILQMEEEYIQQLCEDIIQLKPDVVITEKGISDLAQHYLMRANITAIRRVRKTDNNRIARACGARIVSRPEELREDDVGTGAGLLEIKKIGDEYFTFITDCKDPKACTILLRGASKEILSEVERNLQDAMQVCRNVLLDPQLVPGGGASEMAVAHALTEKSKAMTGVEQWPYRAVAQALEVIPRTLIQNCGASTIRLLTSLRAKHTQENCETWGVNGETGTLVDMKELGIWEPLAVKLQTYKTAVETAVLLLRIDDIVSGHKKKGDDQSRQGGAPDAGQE
T9 sequence (Q14980 whole entry): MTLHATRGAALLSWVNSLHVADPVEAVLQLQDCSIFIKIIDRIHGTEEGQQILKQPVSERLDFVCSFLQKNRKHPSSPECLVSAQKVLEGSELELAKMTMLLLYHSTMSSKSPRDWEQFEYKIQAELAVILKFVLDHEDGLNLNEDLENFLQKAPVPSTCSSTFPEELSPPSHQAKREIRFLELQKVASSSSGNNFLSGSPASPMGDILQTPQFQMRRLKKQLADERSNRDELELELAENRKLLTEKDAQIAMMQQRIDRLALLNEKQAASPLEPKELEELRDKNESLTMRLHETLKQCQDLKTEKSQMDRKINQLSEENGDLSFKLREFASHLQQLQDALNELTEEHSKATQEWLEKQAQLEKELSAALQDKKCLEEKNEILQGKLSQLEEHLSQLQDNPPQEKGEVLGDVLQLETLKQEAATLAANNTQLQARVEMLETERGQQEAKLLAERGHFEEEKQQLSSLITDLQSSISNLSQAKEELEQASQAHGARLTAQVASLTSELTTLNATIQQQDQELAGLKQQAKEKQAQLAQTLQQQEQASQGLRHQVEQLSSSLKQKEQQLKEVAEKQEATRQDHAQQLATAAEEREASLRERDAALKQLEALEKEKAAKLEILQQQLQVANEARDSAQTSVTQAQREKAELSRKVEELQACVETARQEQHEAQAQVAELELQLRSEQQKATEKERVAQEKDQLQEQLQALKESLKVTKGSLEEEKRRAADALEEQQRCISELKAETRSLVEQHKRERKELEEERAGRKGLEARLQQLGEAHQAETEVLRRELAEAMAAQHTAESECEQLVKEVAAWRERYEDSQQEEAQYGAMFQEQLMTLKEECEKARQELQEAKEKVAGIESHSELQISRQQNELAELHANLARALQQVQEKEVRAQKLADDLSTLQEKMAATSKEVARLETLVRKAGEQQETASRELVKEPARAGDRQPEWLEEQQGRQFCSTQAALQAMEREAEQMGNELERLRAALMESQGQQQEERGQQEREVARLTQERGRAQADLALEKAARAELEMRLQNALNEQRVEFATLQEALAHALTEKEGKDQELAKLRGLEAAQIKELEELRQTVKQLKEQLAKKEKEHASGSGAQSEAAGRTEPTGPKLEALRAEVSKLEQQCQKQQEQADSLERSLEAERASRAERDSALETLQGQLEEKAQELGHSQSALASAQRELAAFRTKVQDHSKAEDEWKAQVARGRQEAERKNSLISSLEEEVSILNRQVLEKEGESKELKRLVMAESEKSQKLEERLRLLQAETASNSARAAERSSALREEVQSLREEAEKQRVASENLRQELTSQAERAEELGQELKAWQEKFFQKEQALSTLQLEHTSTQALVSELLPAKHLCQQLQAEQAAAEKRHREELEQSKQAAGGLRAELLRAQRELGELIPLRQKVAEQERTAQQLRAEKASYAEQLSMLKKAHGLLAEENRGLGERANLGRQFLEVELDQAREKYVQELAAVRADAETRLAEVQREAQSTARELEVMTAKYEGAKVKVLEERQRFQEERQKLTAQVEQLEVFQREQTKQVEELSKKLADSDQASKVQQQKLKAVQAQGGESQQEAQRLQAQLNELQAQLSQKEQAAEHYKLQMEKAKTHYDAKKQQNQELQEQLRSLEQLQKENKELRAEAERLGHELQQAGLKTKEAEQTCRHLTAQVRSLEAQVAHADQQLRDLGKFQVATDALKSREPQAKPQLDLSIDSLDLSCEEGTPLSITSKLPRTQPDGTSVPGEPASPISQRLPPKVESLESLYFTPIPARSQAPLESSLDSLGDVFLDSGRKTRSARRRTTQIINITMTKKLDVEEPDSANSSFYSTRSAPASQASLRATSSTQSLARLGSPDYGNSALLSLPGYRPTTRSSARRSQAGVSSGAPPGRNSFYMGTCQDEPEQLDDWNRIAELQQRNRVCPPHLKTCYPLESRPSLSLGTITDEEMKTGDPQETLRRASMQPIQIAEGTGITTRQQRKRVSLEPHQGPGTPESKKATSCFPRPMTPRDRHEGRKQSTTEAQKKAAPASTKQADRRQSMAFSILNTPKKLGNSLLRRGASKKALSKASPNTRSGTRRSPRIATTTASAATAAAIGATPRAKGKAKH
T5 sequence (P05109 whole entry): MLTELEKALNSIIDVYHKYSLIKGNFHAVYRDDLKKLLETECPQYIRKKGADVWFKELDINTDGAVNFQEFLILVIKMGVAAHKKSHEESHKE
T6 sequence (P06748 whole entry): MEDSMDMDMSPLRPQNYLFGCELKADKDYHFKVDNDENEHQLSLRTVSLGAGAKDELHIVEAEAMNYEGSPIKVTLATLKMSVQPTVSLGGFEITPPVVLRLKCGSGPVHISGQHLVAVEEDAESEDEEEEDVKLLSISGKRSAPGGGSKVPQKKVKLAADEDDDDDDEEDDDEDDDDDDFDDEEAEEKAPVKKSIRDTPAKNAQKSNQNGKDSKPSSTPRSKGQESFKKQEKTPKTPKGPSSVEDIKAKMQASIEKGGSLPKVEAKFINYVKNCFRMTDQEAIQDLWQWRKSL
T7 sequence (Q86UE4 whole entry): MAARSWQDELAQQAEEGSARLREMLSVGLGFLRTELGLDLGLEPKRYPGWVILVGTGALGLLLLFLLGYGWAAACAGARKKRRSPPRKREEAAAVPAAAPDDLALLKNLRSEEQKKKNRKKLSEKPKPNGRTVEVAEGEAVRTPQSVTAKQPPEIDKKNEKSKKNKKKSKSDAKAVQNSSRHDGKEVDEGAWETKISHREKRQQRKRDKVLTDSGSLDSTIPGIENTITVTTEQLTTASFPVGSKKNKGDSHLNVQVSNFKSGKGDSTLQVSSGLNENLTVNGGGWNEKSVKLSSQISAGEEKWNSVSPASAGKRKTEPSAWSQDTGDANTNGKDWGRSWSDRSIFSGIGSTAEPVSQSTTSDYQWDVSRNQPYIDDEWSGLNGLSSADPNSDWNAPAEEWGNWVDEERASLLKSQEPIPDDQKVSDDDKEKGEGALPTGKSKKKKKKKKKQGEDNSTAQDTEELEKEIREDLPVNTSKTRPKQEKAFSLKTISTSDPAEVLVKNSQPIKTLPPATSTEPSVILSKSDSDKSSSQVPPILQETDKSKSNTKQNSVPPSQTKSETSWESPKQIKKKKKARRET
T2 sequence (Q96AG4 whole entry): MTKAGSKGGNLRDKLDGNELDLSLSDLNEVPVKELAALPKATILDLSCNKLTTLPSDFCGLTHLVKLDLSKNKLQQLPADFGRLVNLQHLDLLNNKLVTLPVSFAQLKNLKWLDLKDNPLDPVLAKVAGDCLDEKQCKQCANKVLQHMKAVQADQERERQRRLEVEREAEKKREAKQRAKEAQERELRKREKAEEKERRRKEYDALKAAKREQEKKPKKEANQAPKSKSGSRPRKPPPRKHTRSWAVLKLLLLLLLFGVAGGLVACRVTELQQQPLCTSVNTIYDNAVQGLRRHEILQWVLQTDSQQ
T8 sequence (Q96EY1 whole entry): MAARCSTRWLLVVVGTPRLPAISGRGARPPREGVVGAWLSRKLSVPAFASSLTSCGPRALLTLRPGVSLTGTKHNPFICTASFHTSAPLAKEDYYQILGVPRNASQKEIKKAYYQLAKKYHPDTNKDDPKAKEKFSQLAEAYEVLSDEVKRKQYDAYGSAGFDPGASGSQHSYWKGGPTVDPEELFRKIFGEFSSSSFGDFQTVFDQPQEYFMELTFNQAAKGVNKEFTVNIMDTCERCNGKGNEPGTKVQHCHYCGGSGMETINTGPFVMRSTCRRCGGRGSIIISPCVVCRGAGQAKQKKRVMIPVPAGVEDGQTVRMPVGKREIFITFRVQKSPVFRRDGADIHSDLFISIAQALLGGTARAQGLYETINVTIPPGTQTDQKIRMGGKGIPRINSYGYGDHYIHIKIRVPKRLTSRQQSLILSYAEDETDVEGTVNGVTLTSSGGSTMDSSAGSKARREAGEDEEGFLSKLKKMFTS

Regarding `Cn1c2c(c(=N)c3c1CCC3)CCC2` [Compound 1, 4-methyl-2,3,4,5,6,7-hexahydrodicyclopenta[b,e]pyridin-8(1H)-imine], the Difference is given as 0.3628 in [1] (Cmpd minus DMSO, -LOG(P-value) 0.732843); -2.23 in experiment [2] (Cmpd minus DMSO, -LOG(P-value) 0.840063); 1.057 in experiment [3] (Cmpd minus DMSO, -LOG(P-value) 0.706969); 0.5386 in experiment [4] (Cmpd minus DMSO, -LOG(P-value) 0.937615); -2.055 in experiment [5] (Cmpd minus DMSO, -LOG(P-value) 1.46412); -0.4033 in experiment [6] (Cmpd minus DMSO, -LOG(P-value) 0.76043). Also, the Difference is 0.4116 in experiment [7] (Cmpd minus DMSO, -LOG(P-value) 1.04359); 0.8281 in [8] (Cmpd minus DMSO, -LOG(P-value) 0.746444); 1.264 in [9] (Cmpd minus DMSO, -LOG(P-value) 0.722853); 1.498 in experiment [10] (Cmpd minus DMSO, -LOG(P-value) 1.37908). In addition, the “iBAQ Cmpd” value in experiment [1] (replicates 1-3) is 19.198 and 18.7704 and 18.706; in experiment [2] (replicates 1-3) it was 17.7382 and 14.7804 and 13.8761; in experiment [3] (replicates 1-3), 17.1694 and 17.27 and 16.0757; in experiment [4] (replicates 1-3) it was 20.7218 and 21.2363 and 20.6211; in experiment [5] (replicates 1-3) it was 21.5375 and 20.6129 and 20.1927; in experiment [6] (replicates 1-3), 27.3171 and 27.18 and 26.7127. Besides, the “iBAQ Cmpd” value in experiment [7] (replicates 1-3) was 19.4014 and 19.227 and 18.8879; in [8] (replicates 1-3), 17.7043 and 17.5809 and 17.383; in experiment [9] (replicates 1-3), 20.9325 and 19.3521 and 19.3092; in experiment [10] (replicates 1-3) it was 16.2582 and 17.12 and 17.1513.
